Measured values reported in publication PMC11546786, “Designing Analogs of SAAP-148 with Enhanced Antimicrobial and Anti-LPS Activities” (International Journal of Molecular Sciences, 2024).
Ends that are not written are not given here.

Columns and labels:
[1] = test system: Gram-negative bacteria (E. coli, P. aeruginosa, K. pneumoniae); assay: Geometric mean of MICs against Gram-negative bacteria; assay type: cell-based; set-up: unit not given here
In short: (§1)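 Modified CLSI broth microdilution: mid-log bacteria from LB culture were adjusted to 1 × 10^6 CFU/mL and mixed 1:1 with peptide serially diluted in PBS. After 18 to 20 h at 37 °C, growth was read as absorbance at 600 nm.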

[2] = test system: Gram-positive bacteria (S. aureus, S. epidermidis); assay: Geometric mean of MICs against Gram-positive bacteria; assay type: cell-based; set-up: unit not given here
In short: as §1

[3] = test system: S. aureus; assay: Membrane damage, PI staining and flow cytometry; assay type: cell-based, Staphylococcus aureus; conditions: 6.25 μM peptide, 30 min
Experimental: Propidium iodide (PI) was utilized as a marker for assessing the structural integrity of cell membranes and the occurrence of cell death. The impact of peptides on BEAS-2B cells, E. coli, and S. aureus was investigated by treating the cells with peptides followed by PI staining and flow cytometry (FACS) analysis to evaluate peptide-induced membrane damage. Table 5 presents the results of PI staining in BEAS-2B cells (1 × 10^6) following treatment with peptides at a concentration of 6.25 μM. […] FACS analysis at a peptide concentration of 6.25 μM was employed to determine the membrane damage caused by peptides in E. coli and S. aureus cells (Table 5).
Peptide-induced membrane damage was evaluated by quantifying the influx of propidium iodide (PI). BEAS-2B cells (1 × 10^6 cells in 50 μL) were exposed to a final concentration of 6.25 μM peptide and incubated at 37 °C for 30 min, followed by PBS washing and re-suspension in PI solution (dissolved in PBS) at a final concentration of 2 μg/mL. Bacteria were cultured to mid-log phase at 37 °C, then diluted to an OD600 of 0.5 in phosphate-buffered saline (PBS). […] The bacteria were harvested and re-suspended in PI solution, with fluorescence signal analysis conducted using flow cytometry (Cytomics FC 500, Beckman Coulter, Indianapolis, IN, USA).

[4] = test system: human erythrocytes; assay: Haemolytic activity; assay type: cell-based
Experimental: The haemolytic activity of the peptides was evaluated using a standard procedure with minor adjustments. Fresh human erythrocytes were washed thrice and subsequently resuspended at 1.25% haematocrit in PBS. Forty microlitres PBS-diluted peptide solution was added to a 96-well plate (Corning Inc., Lowell, MA, USA), and 160 μL of erythrocytes was added. After incubation at 37 °C for 30 min, the samples were centrifuged, and the absorbance of the supernatant was measured at 450 nm using a multi-well microplate reader (SpectraMax M5; Molecular Devices, Sunnyvale, CA, USA) and compared with the 100% haemolysis caused by 0.1% Triton X-100. The percentage of haemolysis was calculated according to the equation: Haemolysis%=Asample−Ablank/Atriton−Ablank×100

[5] = test system: Staphylococcus epidermidis (1.4260); assay type: cell-based
Text: (§2) The LL-37, SAAP-148 and its analogues peptides were synthesized according to the standard Fmoc procedure. The Fmoc-protected resin and monomers are first treated with a basic solvent (piperidine) to remove the amino protecting groups. The carboxyl group of the next amino acid is activated by an activator. The activated monomer reacts with the free amino group to form a peptide bond. These two steps are repeated in a cycle until the synthesis is complete. After synthesis, the peptide is eluted from the column and purified by reverse-phase semipreparative high-performance liquid chromatography as detailed in Table 1. The peptides were dissolved in PBS to create a 1000 μmol/L stock solution for subsequent use. The purity of the synthetic peptide exceeded 95%. Blood samples from healthy donors were obtained from the Fifth Medical Center of Chinese PLA General Hospital (Beijing, China). Human normal lung epithelial cells (BEAS-2B) and mouse mononuclear macrophages cells (RAW 264.7) were sourced from Beyotime Biotechnology (Beijing, China), along with the Enhanced Cell Counting Kit-8 (CCK-8) and nitric oxide detection kit. RPMI-1640 and DMEM were procured from Merck (Darmstadt, Germany), while FBS was obtained from ExCell Bio (Shanghai, China). LPS-B5 (from E. coli 055:B5) was procured from Invivogen (Toulouse, France). Five bacterial strains, including Escherichia coli (1.8732), Pseudomonas aeruginosa (1.2421), Klebsiella pneumonia (1.1736) as Gram-negative bacteria, and Staphylococcus aureus (1.8721) and Staphylococcus epidermidis (1.4260) as Gram-positive bacteria, were procured from the China General Microbiological Culture Collection Centre (CGMCC) (Beijing, China).
(§3) The antibacterial activities of the peptides against […] were evaluated using a modified version of the Clinical Laboratory and Standards Institute (CLSI) broth microdilution method, as previously described. Briefly, the bacteria were cultured in liquid LB medium (comprising 10 g/L tryptone, 5 g/L yeast extract, and 10 g/L NaCl) at 37 °C until reaching mid-log phase. Subsequently, the bacterial concentration was adjusted to 1 × 10^6 colony-forming units (CFU)/mL. The peptides were then diluted serially with phosphate-buffered saline (PBS), followed by the addition of 50 μL of the diluted peptides to 50 μL of the bacterial suspension in a 96-well plate (Corning Inc., Lowell, MA, USA). After incubating at 37 °C for 18 to 20 h, the absorbance of each well was measured using a multi-well microplate reader (SpectraMax M5; Molecular Devices, Sunnyvale, CA, USA) at 600 nm.

[6] = test system: Staphylococcus aureus (1.8721); assay type: cell-based
Text: as §2, §3

[7] = test system: Pseudomonas aeruginosa (1.2421); assay type: cell-based
Text: as §2, §3

[8] = test system: human erythrocytes versus five bacterial strains; assay: Therapeutic index (MHC/GM of MIC)
Experimental: The geometric mean of minimum inhibitory concentration (MIC) values (GM) from the five strains was calculated to provide a comprehensive assessment of antimicrobial activity, as presented in Table 4.
The therapeutic index (TI) is a widely utilized parameter for indicating the specificity of antimicrobial agents, which is determined by the ratio of MHC (hemolytic activity) and MIC (antimicrobial activity). Consequently, larger TI values signify greater antimicrobial specificity. The TI can be enhanced through one of three mechanisms: increasing antimicrobial activity, reducing hemolytic activity while maintaining antimicrobial activity, or a combination of both augmenting antimicrobial activity and diminishing hemolytic activity.

LKRVWKRVFKLKKRYWRQLKKPVR-NH2 [SAAP-7]
GM to G− [1]: 9.93
GM to G+ [2]: 35.36
percentage of PI-positive cells, S. aureus [3]: 21.1%
fold increase of MHC over that of SAAP-148 [4]: 133.33 fold
MIC S. epidermidis [5]: 12.50 µM
MIC S. aureus [6]: 100.00 µM
MIC P. aeruginosa [7]: 3.13 µM
Fold (TI of analogue compared with SAAP-148) ([8]; TI change relative to SAAP-148): 55.09
TI (MHC/MIC) ([8]; ratio of MHC to geometric mean of MIC (five strains)): 6.06
